The numbers were not newly measured in patent US8349982B2, “Macromonomers and hydrogels” (William Marsh Rice University, priority 2006, dated 2013), which cites them from elsewhere.

For the series the following is noted: stated as typical.

Turning to `C=CC(=O)OCC(CO)(COC(=O)C=C)COC(=O)CCCCCCCCCCCCCCCCC` [PEDAS, Pentaerythritol diacrylate monostearate], the “Solubility in water (in words)” value is “insoluble in water”.
